Results as given in US12442042B2, “Epigenomic profiling reveals the somatic promoter landscape of primary gastric adenocarcinoma” (AGENCY FOR SCIENCE, TECHNOLOGY AND RESEARCH, priority 2016, dated 2025).

Tested on: PBMCs
Assay: EpiMAX assay: cytokine multiplex on supernatants of PBMCs stimulated with peptide pools
Assay type: cell-based, human
Description: A set of peptides for 15 representative alternative promoters was purchased from GenScript (GenScript). Peptide sequences and composition of peptide pools for each alternative promoter are described in Table 3. Control peptide pools for human Actin were purchased from JPT (PM-ACTS, PepMix™ Human (Actin) JPT). Peripheral blood mononuclear cells (PBMCs) were obtained from 9 healthy volunteers of whom 8 PBMC samples were HLA-typed (Table 3).
PBMCs were labelled with 1 μM CFSE (Life Technologies, Thermo Fisher Scientific) and cultured at a density of 200,000 cells per well in complete culture medium (cRPMI comprising RPMI 1640 medium (Gibco, Thermo Fisher Scientific), 15 mM HEPES (Gibco), 1% non-essential amino acid (Gibco), 1 mM sodium pyruvate (Gibco), 1% penicillin/streptomycin (Gibco), 2 mM L-glutamine (Gibco), 50 μM β2-mercaptoethanol (Sigma, Merck), and 10% heat-inactivated FCS (Hyclone)) for 5 days. Individual peptide pools of each alternative promoter were added at the start of the culture at a concentration of 1 μg/ml for each peptide. At the end of day 5, cells were stained with LIVE/DEAD® fixable near-IR dead cell stain kit (Life Technologies), and labelled with CD4-BUV737 (BD), CD8-PacificBlue (BD), CD3-PE (BioLegend), CD19-PE/TexasRed (Beckman), and CD56-APC (BD). Analysis of T cell proliferation by CFSE dilution was performed by flow cytometry using a LSRII (BD). In addition, magnetic bead-based cytokine multiplex analysis (human cytokine panel 1, Millipore, Merck) was performed on cell culture supernatants to measure secreted cytokine levels.

[1] = Donor 1 PBMCs stimulated with peptide pool
[2] = Donor 2 PBMCs stimulated with peptide pool
[3] = Donor 3 PBMCs stimulated with peptide pool
[4] = Donor 4 PBMCs stimulated with peptide pool
[5] = Donor 5 PBMCs stimulated with peptide pool
[6] = Donor 6 PBMCs stimulated with peptide pool
[7] = Donor 7 PBMCs stimulated with peptide pool
[8] = Donor 8 PBMCs stimulated with peptide pool
[9] = Donor 9 PBMCs stimulated with peptide pool

Actin
Analyte concentration GM-CSF [1]: 19.57 pg/mL
Analyte concentration IFNg [1]: 147.18 pg/mL
Analyte concentration IL-2 [1]: 34.21 pg/mL
Analyte concentration IL-3 [1]: 1.46 pg/mL
Analyte concentration IL-4 [1]: 0.03 pg/mL
Analyte concentration IL-7 [1]: 0.085 pg/mL
Analyte concentration IL-9 [1]: 1.22 pg/mL
Analyte concentration IL-10 [1]: 10.1 pg/mL
Analyte concentration IL-13 [1]: 14.2 pg/mL
Analyte concentration IL-15 [1]: 0.925 pg/mL
Analyte concentration IL-17A [1]: 0.02 pg/mL
Analyte concentration TNFa [1]: 101.44 pg/mL
Analyte concentration sCD40L [1]: 0.78 pg/mL
Fold change of total cytokine response (normalized against Actin control) [1]: 1.00
Total analytes [1]: 331.40 pg/mL
Analyte concentration GM-CSF [2]: 15.58 pg/mL
Analyte concentration IFNg [2]: 7.71 pg/mL
Analyte concentration IL-2 [2]: 11.28 pg/mL
Analyte concentration IL-3 [2]: 0.76 pg/mL
Analyte concentration IL-4 [2]: 0.03 pg/mL
Analyte concentration IL-7 [2]: 1.73 pg/mL
Analyte concentration IL-9 [2]: 1.22 pg/mL
Analyte concentration IL-10 [2]: 5.29 pg/mL
Analyte concentration IL-13 [2]: 13.75 pg/mL
Analyte concentration IL-15 [2]: 0.925 pg/mL
Analyte concentration IL-17A [2]: 0.02 pg/mL
Analyte concentration TNFa [2]: 9.18 pg/mL
Analyte concentration sCD40L [2]: 1.81 pg/mL
Fold change of total cytokine response (normalized against Actin control) [2]: 1.00
Total analytes [2]: 69.29 pg/mL
Analyte concentration GM-CSF [3]: 56.66 pg/mL
Analyte concentration IFNg [3]: 60.86 pg/mL
Analyte concentration IL-2 [3]: 13.4 pg/mL
Analyte concentration IL-3 [3]: 0.56 pg/mL
Analyte concentration IL-4 [3]: 4.53 pg/mL
Analyte concentration IL-7 [3]: 0.085 pg/mL
Analyte concentration IL-9 [3]: 1.22 pg/mL
Analyte concentration IL-10 [3]: 2.56 pg/mL
Analyte concentration IL-13 [3]: 5.96 pg/mL
Analyte concentration IL-15 [3]: 0.925 pg/mL
Analyte concentration IL-17A [3]: 2.89 pg/mL
Analyte concentration TNFa [3]: 20.69 pg/mL
Analyte concentration sCD40L [3]: 0.01 pg/mL
Fold change of total cytokine response (normalized against Actin control) [3]: 1.00
Total analytes [3]: 170.35 pg/mL
Analyte concentration GM-CSF [4]: 0.66 pg/mL
Analyte concentration IFNg [4]: 0.01 pg/mL
Analyte concentration IL-2 [4]: 1.27 pg/mL
Analyte concentration IL-3 [4]: 0.005 pg/mL
Analyte concentration IL-4 [4]: 0.03 pg/mL
Analyte concentration IL-7 [4]: 0.085 pg/mL
Analyte concentration IL-9 [4]: 1.22 pg/mL
Analyte concentration IL-10 [4]: 0.18 pg/mL
Analyte concentration IL-13 [4]: 0.99 pg/mL
Analyte concentration IL-15 [4]: 0.925 pg/mL
Analyte concentration IL-17A [4]: 0.02 pg/mL
Analyte concentration TNFa [4]: 1.49 pg/mL
Analyte concentration sCD40L [4]: 0.01 pg/mL
Fold change of total cytokine response (normalized against Actin control) [4]: 1.00
Total analytes [4]: 6.90 pg/mL
Analyte concentration GM-CSF [5]: 0.66 pg/mL
Analyte concentration IFNg [5]: 1.65 pg/mL
Analyte concentration IL-2 [5]: 1.4 pg/mL
Analyte concentration IL-3 [5]: 0.005 pg/mL
Analyte concentration IL-4 [5]: 0.03 pg/mL
Analyte concentration IL-7 [5]: 0.085 pg/mL
Analyte concentration IL-9 [5]: 1.22 pg/mL
Analyte concentration IL-10 [5]: 5.5 pg/mL
Analyte concentration IL-13 [5]: 1.44 pg/mL
Analyte concentration IL-15 [5]: 0.925 pg/mL
Analyte concentration IL-17A [5]: 0.02 pg/mL
Analyte concentration TNFa [5]: 3.08 pg/mL
Analyte concentration sCD40L [5]: 0.01 pg/mL
Fold change of total cytokine response (normalized against Actin control) [5]: 1.00
Total analytes [5]: 16.03 pg/mL
Analyte concentration GM-CSF [6]: 18.18 pg/mL
Analyte concentration IFNg [6]: 135.48 pg/mL
Analyte concentration IL-2 [6]: 11.03 pg/mL
Analyte concentration IL-3 [6]: 0.5 pg/mL
Analyte concentration IL-4 [6]: 0.03 pg/mL
Analyte concentration IL-7 [6]: 0.085 pg/mL
Analyte concentration IL-9 [6]: 1.22 pg/mL
Analyte concentration IL-10 [6]: 4.66 pg/mL
Analyte concentration IL-13 [6]: 8.77 pg/mL
Analyte concentration IL-15 [6]: 0.925 pg/mL
Analyte concentration IL-17A [6]: 2.22 pg/mL
Analyte concentration TNFa [6]: 38.39 pg/mL
Analyte concentration sCD40L [6]: 0.01 pg/mL
Fold change of total cytokine response (normalized against Actin control) [6]: 1.00
Total analytes [6]: 222.13 pg/mL
Analyte concentration GM-CSF [7]: 3.31 pg/mL
Analyte concentration IFNg [7]: 6.53 pg/mL
Analyte concentration IL-2 [7]: 0.77 pg/mL
Analyte concentration IL-3 [7]: 0.01 pg/mL
Analyte concentration IL-4 [7]: 0.03 pg/mL
Analyte concentration IL-7 [7]: 2.29 pg/mL
Analyte concentration IL-9 [7]: 1.22 pg/mL
Analyte concentration IL-10 [7]: 7.7 pg/mL
Analyte concentration IL-13 [7]: 0.14 pg/mL
Analyte concentration IL-15 [7]: 0.925 pg/mL
Analyte concentration IL-17A [7]: 0.02 pg/mL
Analyte concentration TNFa [7]: 48.35 pg/mL
Analyte concentration sCD40L [7]: 0.01 pg/mL
Fold change of total cytokine response (normalized against Actin control) [7]: 1.00
Total analytes [7]: 71.31 pg/mL
Analyte concentration GM-CSF [8]: 0.66 pg/mL
Analyte concentration IFNg [8]: 1.12 pg/mL
Analyte concentration IL-2 [8]: 1.9 pg/mL
Analyte concentration IL-3 [8]: 0.22 pg/mL
Analyte concentration IL-4 [8]: 0.03 pg/mL
Analyte concentration IL-7 [8]: 0.085 pg/mL
Analyte concentration IL-9 [8]: 1.22 pg/mL
Analyte concentration IL-10 [8]: 3.61 pg/mL
Analyte concentration IL-13 [8]: 0.03 pg/mL
Analyte concentration IL-15 [8]: 0.925 pg/mL
Analyte concentration IL-17A [8]: 0.02 pg/mL
Analyte concentration TNFa [8]: 2.64 pg/mL
Analyte concentration sCD40L [8]: 0.58 pg/mL
Fold change of total cytokine response (normalized against Actin control) [8]: 1.00
Total analytes [8]: 13.04 pg/mL
Analyte concentration GM-CSF [9]: 0.66 pg/mL
Analyte concentration IFNg [9]: 3.49 pg/mL
Analyte concentration IL-2 [9]: 0.77 pg/mL
Analyte concentration IL-3 [9]: 0.36 pg/mL
Analyte concentration IL-4 [9]: 0.03 pg/mL
Analyte concentration IL-7 [9]: 2.01 pg/mL
Analyte concentration IL-9 [9]: 1.22 pg/mL
Analyte concentration IL-10 [9]: 2.13 pg/mL
Analyte concentration IL-13 [9]: 1.05 pg/mL
Analyte concentration IL-15 [9]: 0.925 pg/mL
Analyte concentration IL-17A [9]: 0.58 pg/mL
Analyte concentration TNFa [9]: 56.18 pg/mL
Analyte concentration sCD40L [9]: 0.01 pg/mL
Fold change of total cytokine response (normalized against Actin control) [9]: 1.00
Total analytes [9]: 69.42 pg/mL
